Where “and” joins values, the source holds several entries; their conditions need not be identical. Equal entries are not always repeated. Marks after values point to notes of the source that are not given here.
Experiments:
[1] = system: AHAS of SRS 934; test: AHAS product feedback inhibition assay; type: biochemical, Camelina sativa; conditions: for Absorbance reading (530 nm), raw data: single reps
Protocol: (§1) Briefly, for each of the three comparators, leaf and stem (petiole) material was bulk-harvested at the 3-4 leaf stage from at least 30 plantlets, snap-frozen in liquid nitrogen, and stored at −80° C. The AHAS in vitro assay was conducted according to the method of Singh et al (1988), with modifications by Yu (2010) and Rustgi (2014). For each comparator, 4 grams of frozen material were ground to a fine powder with a mortar and pestle in liquid nitrogen and homogenized in 1 volume of cold extraction buffer containing 100 mM potassium phosphate buffer (pH7.5), 10 mM sodium pyruvate, 5 mM MgCl2, 100 μM flavin adenine dinucleotide (FAD), and 10% glycerol. Four 2-mL microcentrifuge tubes were used for each comparator. The homogenate was centrifuged at 13,000 rpm for 10 min at 4° C., supernatant collected and re-centrifuged for an additional 10 minutes under the same conditions. For each tube, 1 mL of supernatant was pipetted into a new 2-mL microcentrifuge tube, and protein was precipitated by the addition of 1 mL of saturated ammonium sulfate. The solution was mixed well by vortex and allowed to stand on ice for 20 minutes, then centrifuged at 13,000 rpm at 4° C. The protein pellet was resuspended in 300 μL of reaction buffer containing 50 mM potassium phosphate buffer (pH7.5), 100 mM sodium pyruvate, 10 mM MgCl2, 1 mM EDTA, 10 μM FAD, 100 mM NaCl, and 1 mM thiamine pyrophosphate. Tubes of each comparator were combined, mixed well, kept on ice and immediately used in the AHAS activity and feedback inhibition assays.
(§2) Total protein concentration of the crude extract was determined by the Bradford method (Bradford, 1976). All assays were conducted using 300 μg of total protein each.
(§3) […] (2010). The reaction mixture contained 50 μL enzyme extract and 50 μL 100 mM sodium pyruvate and inhibitor amino acid. The reaction was incubated at 37° C. for 60 minutes, then stopped and acetolactate converted to acetoin with the addition of 20 μL of 6 N H2SO4 and incubated at 60° C. for 15 minutes. A separate background “blank” was included for each sample group by adding 20 μL of 6 N H2SO4 prior to the addition of the enzyme extracts. Then, 95 μL of 0.55% w/v creatine solution and 95 μL of α-naphthol solution (5.5% w/v in 5 N NaOH) were added and the mixture incubated at 60° C. for a further 15 minutes. After cooling to room temperature for 15 minutes, enzyme activity was determined colorimetrically by reading the absorbance at 530 nm. Three independent experiments were conducted. Experiment 1 and 2 each contained 2 technical replicates, while experiment 3 included 3 technical replicates.

[2] = system: AHAS of 14CS0851-01-14; test: AHAS product feedback inhibition assay; type: biochemical, Camelina sativa; conditions: for sensitivity of AHAS to feedback inhibition, comparison of enzyme extracts: 14CS0851-01-14 vs SRS 934 and MIDAS, 1 mM, 10 mM; for Absorbance reading (530 nm), raw data: single reps
Protocol: as §1, §2, §3

[3] = system: AHAS of MIDAS; test: AHAS product feedback inhibition assay; type: biochemical, Camelina sativa; conditions: for Absorbance reading (530 nm), raw data: single reps
Protocol: as §1, §2, §3

[4] = system: SRS 934; test: Greenhouse dose-response to thifensulfuron-methyl (height, biomass); type: in vivo, Camelina sativa; conditions: 21 days after application, rates 0 to 525 g ai/ha, n = 16
[5] = system: 12CS0366; test: as above; type: in vivo, Camelina sativa; conditions: 21 days after application, rates 0 to 525 g ai/ha, n = 16
[6] = system: 13CS0786; test: as above; type: in vivo, Camelina sativa; conditions: 21 days after application, rates 0 to 525 g ai/ha, n = 16
[7] = system: 12CS0366; test: Phenotype scoring (R/S) after thifensulfuron-methyl 2.5 g ai/ha; type: in vivo, Camelina sativa; conditions: 7 d after application
Excerpt: (§4) At a thifensulfuron-methyl application rate of 2.5 g ai/ha, plants from parental, F2, BC1F1, and BC4F2 populations could easily be scored into one of two discrete phenotypic classes (R, resistant or S, susceptible) 7 d after herbicide application.

[8] = system: 13CS0786; test: as above; type: in vivo, Camelina sativa; conditions: 7 d after application
Excerpt: as §4

[9] = system: 10CS0048 (MIDAS); test: as above; type: in vivo, Camelina sativa; conditions: 7 d after application
Excerpt: as §4

[10] = system: 12CS0365; test: as above; type: in vivo, Camelina sativa; conditions: 7 d after application
Excerpt: as §4

[11] = system: SRS 934; test: as above; type: in vivo, Camelina sativa; conditions: 7 d after application
Excerpt: as §4

[12] = system: 12CS0365; test: Greenhouse dose-response to thifensulfuron-methyl (height, biomass); type: in vivo, Camelina sativa; conditions: 21 days after application, rates 0 to 525 g ai/ha, n = 16
[13] = system: segregating camelina populations; test: Segregation of resistance to thifensulfuron-methyl in F2, BC1F1 and BC4F2 populations; type: in vivo, Camelina sativa; conditions: 2.5 g ai/ha, 7 d
Excerpt: From each cross combination, randomly selected F1 plants were selfed for the development of F2 populations segregating for 1 resistance gene.
Further, mutant lines 12CS0365 and 12CS0366 were crossed with each other and a randomly selected F1 plant selfed for the development of an F2 population segregating for 2 independent resistance genes. F4 progeny of F2 plants homozygous for both resistance genes (13CS0786) was backcrossed to 10CS0048 to form a backcross (BC1F1) population. Further backcrossing to the recurrent parent 10CS0048 was conducted until stabilization of the trait in the BC4F3 generation (homozygous for 2 resistance genes).
as §4
Assuming inheritance in a Mendelian manner, the expected genotypic segregation ratio in an F2 population segregating for a single resistance gene would be 1(RR): 2(Rr): 1(rr), or 3(RR, Rr): 1(rr).
If two unlinked genes for resistance are segregating in an F2 population, the expected genotypic segregation ratio would be 9 (R1-R2-): 2 (R1r1r2r2): 2 (r1r1R2r2): 1 (R1R1r2r2): 1 (r1r1R2R2): 1 (r1r1r2r2), or 15 (R1-R2-, R1r1r2r2, r1r1R2r2, R1R1r2r2, r1r1R2R2): 1 (r1r1r2r2). The expected genotypes in the BC1F1 population would be R1r1R2r2, R1r1r2r2, r1r1R2r2, and r1r1r2r2, each produced in equal frequency, resulting in a segregation ratio of 1 (R1r1R2r2): 2 (R1r1r2r2, r1r1R2r2): 1 (r1r1r2r2), or 3 (R1r1R2r2, R1r1r2r2, r1r1R2r2): 1 (r1r1r2r2). The expected segregation ratio in the BC4F2 generation would be the same as that observed in the F2 population.
The F2 population resulting from the reciprocal cross of 10CS0048 with 12CS0365 and 12CS0366, respectively, the F2 population resulting from the cross 12CS0365/12CS0366 and the BC1F1 and BC4F2 populations resulting from the cross of F4 plants homozygous for 2 resistance genes (13CS0786) with recurrent parent 10CS0048, gave good fit to the expected segregation ratios (Table 7).

[14] = Experiment 1, 30 (mM) amino acid
[15] = Experiment 2, 30 (mM) amino acid
[16] = Experiment 3, 30 (mM) amino acid
[17] = Experiment 2, 100 mM amino acid
[18] = F2 of 12CS0365 × 10CS0048 (reciprocal)
[19] = F2 of 12CS0366 × 10CS0048 (reciprocal)
[20] = Experiment 2, 10 mM amino acid, listed as Valine

## CC[C@H](C)[C@H](N)C(=O)O [isoleucine]
[1]; [14]
  Absorbance reading (530 nm), AVG of reps: 0.234
  Absorbance reading (530 nm), raw data: 0.233
[1]; [15]
  Absorbance reading (530 nm), AVG of reps: 0.187
  Absorbance reading (530 nm), raw data: 0.219 and 0.154
[1]; [16]
  Absorbance reading (530 nm), AVG of reps: 0.033
  Absorbance reading (530 nm), raw data: 0.100
[2]; 100 mM amino acid
  sensitivity of AHAS to feedback inhibition, comparison of enzyme extracts: no significant difference
[2]; [14]
  Absorbance reading (530 nm), AVG of reps: 0.209
  Absorbance reading (530 nm), raw data: 0.201 and 0.217
[2]; [15]
  Absorbance reading (530 nm), AVG of reps: 0.186
  Absorbance reading (530 nm), raw data: 0.200 and 0.171
[2]; [17]
  Absorbance reading (530 nm), raw data: 0.170
[2]; [16]
  Absorbance reading (530 nm), AVG of reps: 0.088
  Absorbance reading (530 nm), raw data: 0.087 and 0.082 and 0.094
[3]; [14]
  Absorbance reading (530 nm), AVG of reps: 0.2675
  Absorbance reading (530 nm), raw data: 0.275 and 0.26
[3]; [17]
  Absorbance reading (530 nm), AVG of reps: 0.163
[3]; [15]
  Absorbance reading (530 nm), raw data: 0.208 and 0.176
[3]; [16]
  Absorbance reading (530 nm), AVG of reps: 0.103
  Absorbance reading (530 nm), raw data: 0.100 and 0.107 and 0.102

## CC(C)C[C@H](N)C(=O)O [leucine]
[2]; 100 mM amino acid
  sensitivity of AHAS to feedback inhibition, comparison of enzyme extracts: no significant difference
[2]; Experiment 1, 100 mM amino acid
  Absorbance reading (530 nm), AVG of reps: 0.143

## COC(=O)c1sccc1S(=O)(=O)NC(=O)Nc1nc(C)nc(OC)n1 [thifensulfuron-methyl]
[4]
  ED50 biomass: 0.09 g ai/ha
  ED50 height: 0.14 g ai/ha
[5]
  ED50 biomass: 8.67 g ai/ha
  ED50 height: 5.25 g ai/ha
[6]
  ED50 biomass: 89.61 g ai/ha
  ED50 height: 26.36 g ai/ha
[7]
  phenotype after herbicide application: resistant phenotype
[8]
  phenotype after herbicide application: resistant phenotype
[9]
  phenotype after herbicide application: either killed or greatly damaged
[10]
  phenotype after herbicide application: resistant phenotype
[11]
  phenotype after herbicide application: either killed or greatly damaged
[12]
  ED50 biomass: 0.69 g ai/ha
  ED50 height: 1.81 g ai/ha
[13]; BC1F1 of 10CS0048 × 13CS0786
  Resistant (R), number of plants: 27 (27)^
  Susceptible (S), number of plants: 9 (9)
[13]; BC4F2 of 10CS0048 × 13CS0786
  Resistant (R), number of plants: 147 (147.2)
  Susceptible (S), number of plants: 10 (9.8)
[13]; [18]
  Resistant (R), number of plants: 555 (568)^‡
  Susceptible (S), number of plants: 202 (189)
[13]; F2 of 12CS0365 × 12CS0366
  Resistant (R), number of plants: 307 (306.6)
  Susceptible (S), number of plants: 20 (20.4)
[13]; [19]
  Resistant (R), number of plants: 549 (540)^
  Susceptible (S), number of plants: 171 (180)

## CC(C)[C@H](N)C(=O)O [valine]
[1]; Experiment 1, 10 mM amino acid
  Absorbance reading (530 nm), AVG of reps: 0.184
  Absorbance reading (530 nm), raw data: 0.186 and 0.182
[1]; Experiment 2, 10 mM amino acid
  Absorbance reading (530 nm), AVG of reps: 0.179
[1]; [20]
  Absorbance reading (530 nm), raw data: 0.206 and 0.151
[1]; Experiment 3, 10 mM amino acid
  Absorbance reading (530 nm), AVG of reps: 0.093
  Absorbance reading (530 nm), raw data: 0.091
[2]; 100 mM amino acid
  sensitivity of AHAS to feedback inhibition, comparison of enzyme extracts: no significant difference
[2]; Experiment 2, 10 mM amino acid
  Absorbance reading (530 nm), AVG of reps: 0.178
  Absorbance reading (530 nm), raw data: 0.190
[2]; [17]
  Absorbance reading (530 nm), raw data: 0.333
[2]; Experiment 3, 10 mM amino acid
  Absorbance reading (530 nm), AVG of reps: 0.073
  Absorbance reading (530 nm), raw data: 0.057 and 0.084
[3]; Experiment 1, 10 mM amino acid
  Absorbance reading (530 nm), AVG of reps: 0.214
  Absorbance reading (530 nm), raw data: 0.205 and 0.223
[3]; Experiment 2, 10 mM amino acid
  Absorbance reading (530 nm), AVG of reps: 0.191
  Absorbance reading (530 nm), raw data: 0.217
[3]; [20]
  Absorbance reading (530 nm), raw data: 0.165
[3]; Experiment 3, 10 mM amino acid
  Absorbance reading (530 nm), AVG of reps: 0.112
  Absorbance reading (530 nm), raw data: 0.133 and 0.110 and 0.112
